The results in this text go back to patent US8716478B2, “Boron-containing small molecules” (Anacor Pharmaceuticals, Inc., priority 2010, dated 2014).

The test system of data set [1] is human PDE4 enzyme. The data set is described as follows: Phosphodiesterase 4 (PDE4) inhibition, semi-purified enzyme from human U937 cells. It is filed as biochemical. The conditions noted are these: 1 μM cAMP, 20 minutes at 25° C.; read-out: PDE4 IC50.
Data set [2] concerns TNF-α in peripheral blood mononuclear cells (PBMCs). Kind of data set: TNF-α inhibition in LPS-stimulated peripheral blood mononuclear cells. It is filed as cell-based. The conditions noted are these: PBMC; PBMCs, LPS 1 μg/mL for 24 h; read-out: Proinflammatory TNF-α IC50. Here is the method:
Peripheral blood mononuclear cells (PBMCs) pooled from 10-20 donors were obtained from a local blood bank, ficoll gradient purified, and stored frozen in liquid nitrogen. Cells were thawed and seeded into 96-well plates at 5×10^5 cells/well in RPMI 1640 with 10% heat-inactivated fetal calf serum (MediaTech, Inc, Hearndon, Va., USA), Test articles were evaluated at the indicated concentrations in 150 μL media containing <2% DMSO, final, with stimulant and PBMCs. Cells were stimulated with lipopolysaccharide (LPS, phenol-extract from E. coli, Sigma-Aldrich, St. Louis, Mo.) at 1 μg/mL. Stimulation was with LPS for 24 h to measure TNF-α. Cytokines in supernatants were analyzed with a FACSArray flow cytometer (BD Biosciences, San Jose, Calif., USA) using the BD Cytometric Bead Array (CBA) Flex Set (BD Biosciences). IC50 values were calculated using the four parameter logistic equation.

A short description of data set [3]: Pharmacokinetics and oral bioavailability after IV and PO dosing. It is filed as in vivo, female CD-1 mice. Conditions: plasma; for bioavailability / AUC: female, CD-1, mouse; for bioavailability: po; for AUC: 10 mg/kg oral suspension dose; for clearance: mouse, 5 mg/kg, female CD-1 mice, intravenous. Here is the method:
The objective of this study was to evaluate the pharmacokinetics and oral bioavailability of PDE4 inhibitors following intravenous (IV) administration and oral (PO) doses in female CD-1 mice.
After dosing, blood samples were collected through 24 h, twice from each animal at specific times (3 mice/time point), into microcentrifuge tubes containing K2EDTA (anticoagulant), stored on wet ice and processed for plasma. The plasma samples were analyzed for concentrations of parent compound by LC/MS/MS using an internal standard/peak area method. Pharmacokinetic analysis of the mean plasma concentration-time profiles following IV and PO administration was performed.
[…] Dosing solutions for intravenous administration were prepared in 55% PEG300/25% PG/20% water. Oral dosing used a suspension prepared in 1% CMC in water with 0.1% Tween 80.
After dosing, blood samples were collected through 24 h, twice from each animal via retro-orbital bleed (˜0.1 mL, 1st time point) or cardiac puncture (˜0.6 mL, 2nd time point) at specific times (3 mice/time point), into microcentrifuge tubes containing K2EDTA (anticoagulant) and stored on wet ice prior to processing.
Plasma was prepared by centrifugation of blood samples for 6 min at approximately 2000×g or 6000 rpm at 4° C. All processed plasma samples (˜50 μL and 300 μL) were transferred to analysis tubes, placed on dry ice immediately and later stored at −80° C. until analysis for concentrations of experimental compound by LC/MS/MS.
Mouse IV clearance, Mouse Oral AUC and Oral Bioavailability are provided below. 6-(1-Hydroxy-1,3-dihydrobenzo[c][1,2]oxaborol-5-yloxy)-2-(2-isopropoxyethoxy)nicotinonitrile (D140) and 6-(1-hydroxy-1,3-dihydrobenzo[c][1,2]oxaborol-5-yloxy)-2-(4-oxopentyloxy)nicotinonitrile (D141) are disclosed in U.S. patent application Ser. No. 12/399,015, filed Mar. 5, 2009.

The IC50 is the concentration at which inhibition is half-maximal. For `COCC(COc1nc(Oc2ccc3c(c2)COB3O)c(Cl)cc1C#N)OC` (centres unmarked) [Compound D232, 5-Chloro-2-(2,3-dimethoxypropoxy)-6-(1-hydroxy-1,3-dihydrobenzo[c][1,2]oxaborol-5-yloxy)nicotinonitrile], the IC50 in data set [1] came out at 23 nM; in data set [2], 98 nM.

As a reminder, the bioavailability is the share of a dose that reaches the circulation, judged against a reference dose that is usually intravenous. A higher bioavailability goes with good availability. Broadly, the AUC is the area under the concentration-time curve, a measure of exposure. Low values mean less exposure, high ones more exposure. As to `CC(C)OCCOc1nc(Oc2ccc3c(c2)COB3O)c(C#N)cc1C#N` [Compound D243, 2-(1-Hydroxy-1,3-dihydrobenzo[c][1,2]oxaborol-5-yloxy)-6-(2-isopropoxyethoxy)pyridine-3,5-dicarbonitrile], the half-inhibitory concentration (IC50) in data set [1] is 6.5 nM. In addition, the IC50 in data set [2] turned out to be 1.1 nM. Further, in data set [3], the bioavailability was 96%, the AUC came to 3900 ng·h/mL and the clearance is 50 mL/min/kg.

With `CC(=O)CCCOc1nc(Oc2ccc3c(c2)COB3O)c(C2CC2)cc1C#N` [Compound D236, 5-cyclopropyl-6-(1-hydroxy-1,3-dihydrobenzo[c][1,2]oxaborol-5-yloxy)-2-(4-oxopentyloxy)nicotinonitrile], the IC50 in data set [2] was determined as 0.34 nM. In data set [3], this molecule had a bioavailability of 100%, an AUC of 5620 ng·h/mL and a clearance of 34.2 mL/min/kg.

Consider `N#Cc1cc(Cl)c(Oc2ccc3c(c2)COB3O)nc1OCCOC(F)(F)F` [Compound D235], for which the IC50 in data set [2] is 2.2 nM. In data set [3], this molecule had an AUC of 5840 ng·h/mL and a clearance of 20.2 mL/min/kg.

As to `[2H]C1([2H])OB(O)c2ccc(Oc3nc(OCCOC(C)C)c(C#N)cc3Cl)cc21` [Compound D251, 5-Chloro-6-(3,3-dideuterio-1-hydroxy-1,3-dihydrobenzo[c][1,2]oxaborol-5-yloxy)-2-(2-isopropoxyethoxy)nicotinonitrile], in data set [2], the IC50 turned out to be 2.3 nM. In data set [3], this molecule had an AUC of 6300 ng·h/mL and a clearance of 44.5 mL/min/kg.

In the case of `N#Cc1cc(Cl)c(Oc2ccc3c(c2)COB3O)nc1OC1CCOCC1` [Compound D240, 5-Chloro-6-(1-hydroxy-1,3-dihydrobenzo[c][1,2]oxaborol-5-yloxy)-2-(tetrahydro-2H-pyran-4-yloxy)nicotinonitrile], in data set [2], the IC50 was determined as 3.8 nM.

As to `Cc1cc(Oc2nc(OCCOC(C)C)c(C#N)cc2Cl)cc2c1B(O)OC2` [Compound D245, 5-Chloro-6-(1-hydroxy-7-methyl-1,3-dihydrobenzo[c][1,2]oxaborol-5-yloxy)-2-(2-isopropoxyethoxy)nicotinonitrile], the IC50 in data set [1] stood at 2 nM; in data set [2], 26 nM.

With `CC(C)OCCOc1nc(Oc2cc3c(cc2F)B(O)OC3)c(Cl)cc1C#N` [Compound D249, 5-Chloro-6-(6-fluoro-1-hydroxy-1,3-dihydrobenzo[c][1,2]oxaborol-5-yloxy)-2-(2-isopropoxyethoxy)nicotinonitrile], the IC50 in data set [2] worked out at 2.3 nM. In data set [3], this molecule had a bioavailability of 100%, an AUC of 3300 ng·h/mL and a clearance of 59.1 mL/min/kg.

Take `CC(=O)CCCOc1nc(Oc2cc3c(cc2F)B(O)OC3)c(Cl)cc1C#N` [Compound D250, 5-Chloro-6-(6-fluoro-1-hydroxy-1,3-dihydrobenzo[c][1,2]oxaborol-5-yloxy)-2-(4-oxopentyloxy)nicotinonitrile]: the IC50 in data set [2] is 0.41 nM. In data set [3], this molecule had a bioavailability of 71%, an AUC of 17000 ng·h/mL and a clearance of 7.83 mL/min/kg.

Consider `N#Cc1cc(Cl)c(Oc2ccc3c(c2)COB3O)nc1OCCOC1CC1` [Compound D239, 5-Chloro-2-(2-cyclopropoxyethoxy)-6-(1-hydroxy-1,3-dihydrobenzo[c][1,2]oxaborol-5-yloxy)nicotinonitrile], for which the 50% inhibitory concentration (IC50) in data set [1] was determined as 1.3 nM; in data set [2], 0.65 nM.

Turning to `CC(C)OCCOc1nc(Oc2ccc3c(c2)C(C)OB3O)c(Cl)cc1C#N` (centres unmarked) [Compound D252, 5-Chloro-6-(1-hydroxy-3-methyl-1,3-dihydrobenzo[c][1,2]oxaborol-5-yloxy)-2-(2-isopropoxyethoxy)nicotinonitrile], the half-maximal inhibitory concentration (IC50) in data set [2] was determined as 160 nM.

As to `CC(=O)CCCOc1nc(Oc2ccc3c(c2)COB3O)c(C#N)cc1Cl` [Compound D253, 5-Chloro-2-(1-hydroxy-1,3-dihydrobenzo[c][1,2]oxaborol-5-yloxy)-6-(4-oxopentyloxy)nicotinonitrile], the concentration for half-maximal inhibition (IC50) in data set [1] is 0.25 nM; in data set [2], 0.57 nM.

Regarding `CC(C)OCCOc1nc(Oc2ccc3c(c2)COB3O)c(C2CC2)cc1C#N` [Compound D237, 5-cyclopropyl-6-(1-hydroxy-1,3-dihydrobenzo[c][1,2]oxaborol-5-yloxy)-2-(2-isopropoxyethoxy)nicotinonitrile], the IC50 in data set [2] is 1.5 nM. In data set [3], this molecule showed a bioavailability of 100%, an AUC of 6920 ng·h/mL and a clearance of 26.8 mL/min/kg.

Turning to `CC(C)OCCOc1nc(Oc2cc(F)c3c(c2)COB3O)c(Cl)cc1C#N` [Compound D247, 5-Chloro-6-(7-fluoro-1-hydroxy-1,3-dihydrobenzo[c][1,2]oxaborol-5-yloxy)-2-(2-isopropoxyethoxy)nicotinonitrile], the IC50 in data set [1] was 19 nM. Besides, the IC50 in data set [2] was 2.9 nM. In data set [3], this molecule showed a bioavailability of 100%, an AUC of 21000 ng·h/mL and a clearance of 18.3 mL/min/kg.

Regarding `CC(C)OCCOc1nc(Oc2cc(F)c3c(c2)COB3O)cc(C(F)(F)F)c1C#N` [Compound D254, 6-(7-fluoro-1-hydroxy-1,3-dihydrobenzo[c][1,2]oxaborol-5-yloxy)-2-(2-isopropoxyethoxy)-4-(trifluoromethyl)nicotinonitrile], in data set [2], the IC50 was determined as 3.5 nM. For the same molecule, in data set [3], the bioavailability came to 58%, the AUC stood at 110000 ng·h/mL and the clearance is 1.05 mL/min/kg.

Turning to `CC(C)OCCOc1nc(Oc2ccc3c(c2)COB3O)c(C(F)(F)F)cc1C#N` [Compound D238, 6-(1-Hydroxy-1,3-dihydrobenzo[e][1,2]oxaborol-5-yloxy)-2-(2-isopropoxyethoxy)-5-(trifluoromethyl)nicotinonitrile], the IC50 in data set [2] was determined as 1.1 nM. In data set [3], this molecule had a bioavailability of 65%, an AUC of 11200 ng·h/mL and a clearance of 9.85 mL/min/kg.

Consider `CC(=O)CCCOc1nc(Oc2ccc3c(c2)COB3O)c(C#N)cc1C#N` [Compound D244, 2-(1-Hydroxy-1,3-dihydrobenzo[c][1,2]oxaborol-5-yloxy)-6-(4-oxopentyloxy)pyridine-3,5-dicarbonitrile], for which the IC50 in data set [2] is 0.21 nM. In addition, in data set [3], the bioavailability turned out to be 100%, the AUC is 13600 ng·h/mL and the clearance was 23.3 mL/min/kg.

On to `CC(=O)CCCOc1nc(Oc2cc(F)c3c(c2)COB3O)c(Cl)cc1C#N` [Compound D248, 5-Chloro-6-(7-fluoro-1-hydroxy-1,3-dihydrobenzo[c][1,2]oxaborol-5-yloxy)-2-(4-oxopentyloxy)nicotinonitrile], for which the IC50 in data set [1] amounted to 1.7 nM. For the same molecule, the IC50 in data set [2] is 0.93 nM. In data set [3], the bioavailability was determined as 79%, the AUC came to 91000 ng·h/mL and the clearance is 1.83 mL/min/kg.

Turning to `CC(=O)CCCOc1nc(Oc2cc(C)c3c(c2)COB3O)c(Cl)cc1C#N` [Compound D246, 5-Chloro-6-(1-hydroxy-7-methyl-1,3-dihydrobenzo[c][1,2]oxaborol-5-yloxy)-2-(4-oxopentyloxy)nicotinonitrile], the results for the IC50 in data set [1] and in data set [2] were 1.3 nM and 11 nM, respectively.

Turning to `CC(=O)CCCOc1nc(Oc2ccc3c(c2)COB3O)cc(C(F)(F)F)c1C#N` [Compound D242, 6-(1-Hydroxy-1,3-dihydrobenzo[c][1,2]oxaborol-5-yloxy)-2-(4-oxopentyloxy)-4-(trifluoromethyl)nicotinonitrile], in data set [1], the IC50 was 2.2 nM. For the same molecule, the half-inhibitory concentration (IC50) in data set [2] came out at 0.21 nM. For the same molecule, in data set [3], the bioavailability worked out at 15%, the AUC is 590 ng·h/mL and the clearance was 567 mL/min/kg.

`CC(C)OCCOc1nc(Oc2ccc3c(c2)COB3O)cc(C(F)(F)F)c1C#N` [Compound D241, 6-(1-hydroxy-1,3-dihydrobenzo[c][1,2]oxaborol-5-yloxy)-2-(2-isopropoxyethoxy)-4-(trifluoromethyl)nicotinonitrile]: the IC50 in data set [1] came to 1.1 nM. Besides, the IC50 in data set [2] is 2.9 nM. In data set [3], this molecule had a bioavailability of 100%, an AUC of 14900 ng·h/mL and a clearance of 14.2 mL/min/kg.
